Like-named read-outs stand apart in the source and are kept apart here. One block for each compound: values may come before it.
What was measured:
PI 3-kinase = conditions: cited from earlier work; for fold less effective than wortmannin towards PI 3-kinase: relative to wortmannin
DNA-PKcs = biological target: T1, DNA-PKcs (Homo sapiens, UniProt P78527); experiment: Streptavidin-sepharose pull-down from nuclear extract, DNA-PKcs; format: binding; conditions: HeLa nuclear extract; 150 μM wortmannin or 1 mM ATP
T1 construct: we used nuclear extract for our pull-down experiments; endogenous in cells
Description: (§1) For the competition with ATP, ATP was directly added to a final concentration of 1 mM ATP.
(§2) To determine which PIK-related kinases could be pulled-down with BW, we performed several affinity precipitations after incubation with BW concentrations ranging from 0.5-50 μM. As controls, we used the […] compound (negative) and nuclear extracts (positive). We probed a Western blot for the precipitation of ATR, ATM and DNA-PKcs and received a pattern of different sensibility that is related to the IC50s observed in vitro. DNA-PKcs is the most sensitive member to precipitation with BW of the PIK-related kinases we tested and can be precipitated at concentrations as low as 0.5 μM. ATM also seems to be more sensitive to precipitation than ATR, and starts to give a signal at 2 μM. ATR is the least sensitive kinase to precipitation tested, and starts to pull-down at 10 μM.
(§3) Therefore, we performed pull-down reactions with 30 μM biotin-wortmannin using HeLa nuclear extract. […] The proteins that were pull-down were analyzed via Western blot detecting DNA-PKcs, ATM and biotin-wortmannin.

ATM = biological target: T2, ATM (Homo sapiens, UniProt Q13315); experiment: Streptavidin-sepharose pull-down from nuclear extract, ATM; format: binding; conditions: HeLa nuclear extract; 150 μM wortmannin or 1 mM ATP
T2 construct: we used nuclear extract for our pull-down experiments; endogenous in cells
Description: as §1, §2, §3

mTOR (FRAP) = mTOR (FRAP) (Homo sapiens, UniProt P42345); conditions: cited from earlier work
Flag-tagged ATR = biological target: T3, Flag-tagged ATR (Homo sapiens, UniProt Q13535); experiment: ATR kinase assay (GST-RAD17 substrate); format: biochemical; conditions: 3-4 experiments, read from a graph
T3 construct: expressed in transfected cells
Description: After the incubation, the beads were washed in 500 μl kinase buffer.
ATR kinase assay: ATR precipitates were incubated with 27.5 μl of kinase buffer+1 μl 32P γ-ATP (1 μCi)+1.5 μl GST-RAD17 substrate (1.5 μg) for exactly 15 min at 30° C. The reactions were stopped by adding 10 μl of 6×SDS sample buffer and boiling the sample for 8 min at 95° C.
The dried gel was either exposed overnight to Biomax film or in the phosphoimager cassette for several hours and quantified using the program Image Quant v1.2 from Molecular Dynamics, Sunnyvale, Calif. (USA). Curves were plotted in the program KaleidaGraph v3.5 (Synergy Software, Reading, Pa.) using the Hill equation. […]
After the kinase reactions were carried out, the samples were separated on a 5-12.5% gradient gel. […] Flag-ATR and labeling with biotin-wortmannin were detected by chemiluminescence using α-Flag M5 or streptavidin HRP antibody. The lower half of the gel was stained with coomassie, dried and analyzed by autoradiography.
Analysis of substrate phosphorylation by autoradiography allows evaluation of the kinase activity that remains after incubation with different amounts of biotin-wortmannin. […] In the lower lane, the amount of Flag-tagged ATR was determined by using a Flag specific antibody. This signal was used to normalize for equal loading to generate quantitative data. […]

[1] = Stability in buffer systems by thin layer chromatography; format: physicochemical; conditions: most conditions tested (not 1 M Tris)
HEK 293T cells = experiment: Capability to enter intact cells (protein labeling after cell incubation); format: cell-based, human; conditions: 50 μM, 45 min
Description: The media and the inhibitory compound were premixed to reduce toxicity and incubated on the cells for 45 min or 1 h.
After 45 min, the cells were harvested and then lysates were generated. 100 μg of protein was separated on a 5-12.5% gradient gel, transferred to PVDF membrane and either analyzed with α-wortmannin sera or with streptavidin HRP to detect biotin-wortmannin.

ATR = ATR (Homo sapiens, UniProt Q13535); conditions: Sarkaria et al., 1998; cited from earlier work

T1 sequence (P78527 whole entry): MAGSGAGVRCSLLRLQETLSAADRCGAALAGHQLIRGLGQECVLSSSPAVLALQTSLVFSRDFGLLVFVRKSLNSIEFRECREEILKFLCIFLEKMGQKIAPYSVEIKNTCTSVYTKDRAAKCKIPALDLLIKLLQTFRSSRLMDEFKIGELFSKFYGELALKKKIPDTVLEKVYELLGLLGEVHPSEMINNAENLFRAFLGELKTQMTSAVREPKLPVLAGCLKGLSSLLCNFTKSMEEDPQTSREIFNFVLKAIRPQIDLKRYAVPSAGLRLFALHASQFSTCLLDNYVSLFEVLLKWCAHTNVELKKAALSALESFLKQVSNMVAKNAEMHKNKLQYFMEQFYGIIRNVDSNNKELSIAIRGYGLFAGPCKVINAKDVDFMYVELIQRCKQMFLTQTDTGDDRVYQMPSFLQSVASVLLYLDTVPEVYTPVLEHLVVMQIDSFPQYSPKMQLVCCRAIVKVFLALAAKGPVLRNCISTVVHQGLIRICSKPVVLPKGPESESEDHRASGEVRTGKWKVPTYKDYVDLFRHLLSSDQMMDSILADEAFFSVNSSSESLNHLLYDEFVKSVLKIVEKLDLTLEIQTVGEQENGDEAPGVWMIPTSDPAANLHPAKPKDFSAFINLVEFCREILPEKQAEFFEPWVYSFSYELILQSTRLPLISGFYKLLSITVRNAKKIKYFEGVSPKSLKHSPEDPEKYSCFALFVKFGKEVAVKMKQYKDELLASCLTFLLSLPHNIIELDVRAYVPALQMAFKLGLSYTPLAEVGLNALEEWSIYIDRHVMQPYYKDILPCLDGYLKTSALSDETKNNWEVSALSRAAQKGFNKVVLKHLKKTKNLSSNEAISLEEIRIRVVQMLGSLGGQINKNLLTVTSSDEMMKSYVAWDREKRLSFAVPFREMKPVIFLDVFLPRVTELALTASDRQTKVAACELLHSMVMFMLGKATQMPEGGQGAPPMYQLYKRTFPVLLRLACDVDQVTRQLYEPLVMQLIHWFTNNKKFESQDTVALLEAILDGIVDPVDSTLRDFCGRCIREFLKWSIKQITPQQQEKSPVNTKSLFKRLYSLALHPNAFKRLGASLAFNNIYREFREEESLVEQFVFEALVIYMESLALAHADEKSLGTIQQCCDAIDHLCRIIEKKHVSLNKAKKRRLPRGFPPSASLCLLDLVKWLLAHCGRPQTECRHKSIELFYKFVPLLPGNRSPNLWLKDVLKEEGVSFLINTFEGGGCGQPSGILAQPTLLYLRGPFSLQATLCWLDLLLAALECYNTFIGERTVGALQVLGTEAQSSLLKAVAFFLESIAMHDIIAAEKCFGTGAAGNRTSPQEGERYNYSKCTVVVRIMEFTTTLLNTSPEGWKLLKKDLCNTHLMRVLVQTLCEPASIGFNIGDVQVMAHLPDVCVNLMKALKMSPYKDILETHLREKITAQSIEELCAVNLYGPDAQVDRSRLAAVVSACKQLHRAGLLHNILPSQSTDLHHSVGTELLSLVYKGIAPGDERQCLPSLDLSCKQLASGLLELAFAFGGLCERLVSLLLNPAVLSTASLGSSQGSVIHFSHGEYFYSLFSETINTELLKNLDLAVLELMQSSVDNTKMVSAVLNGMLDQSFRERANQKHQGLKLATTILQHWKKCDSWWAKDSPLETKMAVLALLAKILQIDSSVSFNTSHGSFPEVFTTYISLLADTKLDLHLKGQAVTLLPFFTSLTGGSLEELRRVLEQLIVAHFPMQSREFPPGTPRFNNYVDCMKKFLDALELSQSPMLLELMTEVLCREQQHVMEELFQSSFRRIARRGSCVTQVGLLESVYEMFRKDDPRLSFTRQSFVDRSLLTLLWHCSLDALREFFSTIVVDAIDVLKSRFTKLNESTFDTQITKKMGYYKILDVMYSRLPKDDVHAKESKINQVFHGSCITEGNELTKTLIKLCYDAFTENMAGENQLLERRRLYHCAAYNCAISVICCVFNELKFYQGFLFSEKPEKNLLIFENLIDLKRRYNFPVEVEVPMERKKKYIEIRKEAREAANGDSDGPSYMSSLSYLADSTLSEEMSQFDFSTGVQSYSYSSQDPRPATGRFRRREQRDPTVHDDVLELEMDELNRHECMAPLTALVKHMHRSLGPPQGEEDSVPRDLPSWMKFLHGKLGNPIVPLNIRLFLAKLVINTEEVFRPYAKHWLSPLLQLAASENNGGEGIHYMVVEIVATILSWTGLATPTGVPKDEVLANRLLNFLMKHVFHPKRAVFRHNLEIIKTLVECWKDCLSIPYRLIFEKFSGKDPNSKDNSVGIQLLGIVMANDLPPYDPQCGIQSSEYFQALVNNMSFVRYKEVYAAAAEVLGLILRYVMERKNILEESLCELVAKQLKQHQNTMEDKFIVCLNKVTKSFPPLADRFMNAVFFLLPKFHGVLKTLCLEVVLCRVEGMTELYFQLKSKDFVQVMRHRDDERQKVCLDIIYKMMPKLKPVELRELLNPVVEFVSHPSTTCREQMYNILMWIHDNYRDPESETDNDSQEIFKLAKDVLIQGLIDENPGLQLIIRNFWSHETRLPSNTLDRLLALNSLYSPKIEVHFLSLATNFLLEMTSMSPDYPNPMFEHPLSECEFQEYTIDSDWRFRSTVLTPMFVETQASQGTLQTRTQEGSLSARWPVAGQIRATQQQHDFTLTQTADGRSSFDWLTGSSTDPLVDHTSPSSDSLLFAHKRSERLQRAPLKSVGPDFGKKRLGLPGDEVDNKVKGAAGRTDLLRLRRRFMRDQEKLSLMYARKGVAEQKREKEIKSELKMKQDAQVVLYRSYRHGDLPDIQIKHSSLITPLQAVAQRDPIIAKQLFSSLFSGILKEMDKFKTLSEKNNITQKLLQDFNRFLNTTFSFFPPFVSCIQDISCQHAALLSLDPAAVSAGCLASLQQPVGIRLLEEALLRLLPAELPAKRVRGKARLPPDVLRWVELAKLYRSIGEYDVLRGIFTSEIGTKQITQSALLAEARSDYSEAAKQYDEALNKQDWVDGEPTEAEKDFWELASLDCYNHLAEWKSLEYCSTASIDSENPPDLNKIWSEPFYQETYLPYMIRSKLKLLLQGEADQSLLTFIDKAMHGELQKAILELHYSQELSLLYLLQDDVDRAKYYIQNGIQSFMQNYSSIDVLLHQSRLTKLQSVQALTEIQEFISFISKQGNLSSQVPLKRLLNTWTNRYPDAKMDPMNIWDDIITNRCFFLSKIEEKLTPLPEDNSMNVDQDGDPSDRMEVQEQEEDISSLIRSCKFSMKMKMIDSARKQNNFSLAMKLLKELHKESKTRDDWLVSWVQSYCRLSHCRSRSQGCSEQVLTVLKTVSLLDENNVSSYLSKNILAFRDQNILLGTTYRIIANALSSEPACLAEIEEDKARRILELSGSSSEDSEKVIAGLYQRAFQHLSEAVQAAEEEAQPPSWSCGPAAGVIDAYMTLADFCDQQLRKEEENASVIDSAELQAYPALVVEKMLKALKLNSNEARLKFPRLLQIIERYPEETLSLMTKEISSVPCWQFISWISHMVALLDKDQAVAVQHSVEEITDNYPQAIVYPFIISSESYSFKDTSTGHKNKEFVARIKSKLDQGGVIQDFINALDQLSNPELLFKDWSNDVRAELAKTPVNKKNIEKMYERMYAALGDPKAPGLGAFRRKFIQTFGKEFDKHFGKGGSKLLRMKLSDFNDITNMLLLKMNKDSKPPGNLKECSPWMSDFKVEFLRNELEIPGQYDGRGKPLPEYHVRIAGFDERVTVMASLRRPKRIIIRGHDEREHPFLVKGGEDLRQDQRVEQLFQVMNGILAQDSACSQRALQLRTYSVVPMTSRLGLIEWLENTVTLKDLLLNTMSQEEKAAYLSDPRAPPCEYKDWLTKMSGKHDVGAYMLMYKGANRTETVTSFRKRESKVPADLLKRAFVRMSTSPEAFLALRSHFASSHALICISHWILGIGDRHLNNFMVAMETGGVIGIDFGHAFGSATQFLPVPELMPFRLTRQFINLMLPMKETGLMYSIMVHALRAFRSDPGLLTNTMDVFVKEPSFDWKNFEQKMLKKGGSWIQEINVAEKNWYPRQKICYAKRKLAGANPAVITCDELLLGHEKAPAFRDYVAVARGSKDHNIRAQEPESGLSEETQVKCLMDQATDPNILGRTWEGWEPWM

SMILES: COCC1OC(=O)c2coc3c2C1(C)C1=C(C3=O)C2CCC(=O)C2(C)CC1O (stereo not shown) [11-O-desacetyl wortmannin]
IC50 (PI 3-kinase): 16.7 nM | fold less effective than wortmannin towards PI 3-kinase (PI 3-kinase): 4 fold | fold less effective than wortmannin towards PI 3-kinase (PI 3-kinase; listed as 0-11-desacetylwortmannin): about four

effect of pretreatment on pull-down of DNA-PKcs with 30 μM biotin-wortmannin (DNA-PKcs): did not show an effect | effect of pretreatment on pull-down of ATM with 30 μM biotin-wortmannin (ATM): did not show an effect
SMILES: Nc1ncnc2c1ncn2[C@@H]1O[C@H](COP(=O)(O)OP(=O)(O)OP(=O)(O)O)[C@@H](O)[C@H]1O [ATP]

SMILES: O=c1cc(N2CCOCC2)oc2c(-c3ccccc3)cccc12 [LY294002, 2-(4-morpholinyl)-S-phenyl-4H-1-benzopyran-4-one]
IC50 (mTOR (FRAP)): ~3000 nM

SMILES: COC[C@H]1OC(=O)c2coc3c2[C@@]1(C)C1=C(C3=O)[C@@H]2CCC(=O)[C@@]2(C)C[C@H]1OC(C)=O [wortmannin, Wortmannin]
IC50 (Flag-tagged ATR): 1800 nM | time in large part stable in buffer [1]: at least 30 min | capability to enter into intact cells (HEK 293T cells): capable to enter into intact cells | IC50 (ATR): 1800 nM

Source: patent publication US20030194749A1 (priority 2002, published 2003)
